Earlier results in patent US20060052322A1, “Combination treatment of cancer with elicitor of gene product expression and gene-product targeting agent” (INTROGEN THERAPEUTICS, INC., priority 2004, published 2006).
Counter-ions that a name gives are not always drawn. Like-named read-outs stand apart in the source and are kept apart here. Blank lines part the entries; values can stand above or below the compound they belong to. Starred links: 1 amine or outer side, 2 acyl side, 3 side chain; linkers in the order of their positions; H or OH if unused. Positions of bridges follow the written chain, without caps; N, C: chain ends. Non-standard residues stand in square brackets, D forms with d. Residues, ends and D or L forms follow the SMILES beside them. Chains are numbered I, II in the order given. Actinocin(9to1) = Cc1c2oc3c(C)ccc(C(=O)[*:1])c3nc-2c(C(=O)[*:2])c(N)c1=O; NMeV = CN[C@H](C(=O)O)C(C)C; Sar = CNCC(=O)O

Columns and labels:
[1] = share of dose

SMILES: Cc1c2oc3c(C)ccc(C(=O)N[C@@H]4C(=O)N[C@H](C(C)C)C(=O)N5CCC[C@H]5C(=O)N(C)CC(=O)N(C)[C@@H](C(C)C)C(=O)O[C@@H]4C)c3nc-2c(C(=O)N[C@@H]2C(=O)N[C@H](C(C)C)C(=O)N3CCC[C@H]3C(=O)N(C)CC(=O)N(C)[C@@H](C(C)C)C(=O)O[C@@H]2C)c(N)c1=O [Actinomycin D] (I: T[dV]P[Sar][NMeV] / II: T[dV]P[Sar][NMeV]; ester I:1-I:C, II:1-II:C; linker I:N-II:N via Actinocin(9to1))
excreted/recovered in the urine [1]: 10%
secreted/excreted into the bile [1]: Half

SMILES: CC[C@@]1(O)C(=O)OCc2c1cc1n(c2=O)Cc2cc3ccccc3nc2-1 [Camptothecin]
storage stability (2-8° C., dry, airtight, light-resistant environment): at least two years

SMILES: COc1cccc2c1C(=O)c1c(O)c3c(c(O)c1C2=O)C[C@@](O)(C(C)=O)C[C@@H]3O[C@H]1C[C@H](N)[C@H](O)[C@H](C)O1 [Daunorubicin, 5,12-Naphthacenedione, (8S-cis)-8-acetyl-10-[(3-amino-2,3,6-trideoxy-a-L-lyxo-hexanopyranosyl)oxy]-7,8,9,10-tetrahydro-6,8,11-trihydroxy-10-methoxy-, hydrochloride]
secreted/excreted into the bile [1]: ~40%

excreted/recovered in the urine [1]: a few percent
SMILES: COc1cccc2c1C(=O)c1c(O)c3c(c(O)c1C2=O)C[C@@](O)(C(=O)CO)C[C@@H]3O[C@H]1C[C@H](N)[C@H](O)[C@H](C)O1 [Doxorubicin, 5,12-Naphthacenedione, (8s-cis)-10-[(3-amino-2,3,6-trideoxy-a-L-lyxo-hexopyranosyl)oxy]-7,8,9,10-tetrahydro-6,8,11-trihydroxy-8-(hydroxyacetyl)-1-methoxy-hydrochloride]

SMILES: O=NN(CCCl)C(=O)NC1CCCCC1 [Lomustine, 1-(2-chloro-ethyl)-3-cyclohexyl-1 nitrosourea]
solubility (absolute alcohol): 70 mg per ml
solubility (water): < 0.05 mg per ml

excreted/recovered in the urine [1]: Approximately 10%
SMILES: CO[C@@]12[C@H](COC(N)=O)C3=C(C(=O)C(C)=C(N)C3=O)N1C[C@@H]1N[C@@H]12 [Mitomycin]

excreted/recovered in the urine [1]: Approximately 15%
SMILES: CC[C@]1(O)C[C@@H]2CN(CCc3c([nH]c4ccccc34)[C@@](C(=O)OC)(c3cc4c(cc3OC)N(C)[C@H]3[C@@](O)(C(=O)OC)[C@H](OC(C)=O)[C@]5(CC)C=CCN6CC[C@]43[C@@H]65)C2)C1 [Vinblastine]
